The record followed here is paper PMC5065774 (Bioorganic & medicinal chemistry, 2016).

For one assay, the target named is T1, HDAC6 (Homo sapiens, UniProt Q9UBN7).
T1 sequence (Q9UBN7 1-1215): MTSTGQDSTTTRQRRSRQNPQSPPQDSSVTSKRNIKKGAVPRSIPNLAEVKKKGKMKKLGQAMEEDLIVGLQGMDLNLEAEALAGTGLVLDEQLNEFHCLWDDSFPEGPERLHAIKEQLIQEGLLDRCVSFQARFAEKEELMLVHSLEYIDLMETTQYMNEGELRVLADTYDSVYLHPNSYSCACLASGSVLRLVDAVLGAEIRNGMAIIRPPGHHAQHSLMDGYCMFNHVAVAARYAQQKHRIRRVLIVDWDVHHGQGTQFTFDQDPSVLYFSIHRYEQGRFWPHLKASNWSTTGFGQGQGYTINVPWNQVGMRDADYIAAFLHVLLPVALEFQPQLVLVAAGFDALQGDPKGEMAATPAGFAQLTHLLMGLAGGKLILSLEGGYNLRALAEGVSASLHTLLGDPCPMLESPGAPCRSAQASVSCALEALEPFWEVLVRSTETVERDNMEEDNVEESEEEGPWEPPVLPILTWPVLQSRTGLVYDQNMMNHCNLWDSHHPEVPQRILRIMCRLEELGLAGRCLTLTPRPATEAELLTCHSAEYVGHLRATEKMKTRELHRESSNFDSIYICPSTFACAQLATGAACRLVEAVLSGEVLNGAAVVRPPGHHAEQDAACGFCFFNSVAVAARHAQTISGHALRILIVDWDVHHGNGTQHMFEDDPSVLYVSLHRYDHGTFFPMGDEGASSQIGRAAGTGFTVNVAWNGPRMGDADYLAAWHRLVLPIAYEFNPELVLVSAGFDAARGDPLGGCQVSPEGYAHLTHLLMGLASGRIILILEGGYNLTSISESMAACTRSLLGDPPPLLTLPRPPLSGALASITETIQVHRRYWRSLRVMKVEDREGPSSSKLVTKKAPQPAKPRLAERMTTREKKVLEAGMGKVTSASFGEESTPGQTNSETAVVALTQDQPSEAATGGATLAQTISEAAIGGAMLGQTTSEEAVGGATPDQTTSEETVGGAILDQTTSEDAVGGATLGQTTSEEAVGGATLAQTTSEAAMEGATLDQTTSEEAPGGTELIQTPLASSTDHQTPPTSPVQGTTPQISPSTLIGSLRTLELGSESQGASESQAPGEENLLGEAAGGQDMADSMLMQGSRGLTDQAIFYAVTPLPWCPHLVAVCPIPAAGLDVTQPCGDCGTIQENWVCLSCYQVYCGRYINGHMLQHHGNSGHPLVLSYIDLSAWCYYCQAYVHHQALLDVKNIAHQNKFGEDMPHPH
The experiment in a line: HDAC isozyme panel at BPS Bioscience, HDAC6. In kind it is biochemical. The note with it: read-out: % inhibition of HDAC6.

In another assay the target is T2, HDAC10 (Homo sapiens, UniProt Q969S8).
T2 sequence (Q969S8 1-669): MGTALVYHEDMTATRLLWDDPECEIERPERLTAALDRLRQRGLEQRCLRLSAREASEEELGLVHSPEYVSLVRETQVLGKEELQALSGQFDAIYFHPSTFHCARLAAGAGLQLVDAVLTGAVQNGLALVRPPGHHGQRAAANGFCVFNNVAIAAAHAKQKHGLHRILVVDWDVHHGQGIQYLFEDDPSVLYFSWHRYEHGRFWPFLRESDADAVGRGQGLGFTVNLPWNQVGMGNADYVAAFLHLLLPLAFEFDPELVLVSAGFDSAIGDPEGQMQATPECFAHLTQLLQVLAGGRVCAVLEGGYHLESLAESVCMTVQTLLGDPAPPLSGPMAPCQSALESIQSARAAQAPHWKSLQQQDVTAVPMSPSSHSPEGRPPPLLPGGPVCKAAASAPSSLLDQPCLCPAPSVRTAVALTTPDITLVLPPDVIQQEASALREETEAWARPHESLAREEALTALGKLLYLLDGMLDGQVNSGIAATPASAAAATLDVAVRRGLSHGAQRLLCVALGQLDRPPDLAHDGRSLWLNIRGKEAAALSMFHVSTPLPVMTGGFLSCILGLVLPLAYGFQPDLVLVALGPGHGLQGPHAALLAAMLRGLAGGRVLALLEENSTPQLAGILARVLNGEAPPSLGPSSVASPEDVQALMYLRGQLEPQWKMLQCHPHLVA
The experiment in a line: HDAC isozyme panel at BPS Bioscience, HDAC10. Particulars: read-out: % inhibition of HDAC10. In kind it is biochemical.

A further assay has as its target HDAC3 (Homo sapiens, UniProt O15379). The experiment in a line: HDAC isozyme panel at BPS Bioscience, HDAC3. In kind it is biochemical. Particulars: read-out: % inhibition of HDAC3.
The target in a further assay is HDAC1 (Homo sapiens, UniProt Q13547). The experiment in a line: HDAC isozyme panel at BPS Bioscience, HDAC1. In kind it is biochemical. Particulars: read-out: % inhibition of HDAC1.
Assay [1] deals with TALL-104 CTL human leukemia cells. Put plainly: Cytotoxic T-lymphocyte. Particulars: 100 μM. In kind it is cell-based.

Each structure is given as a SMILES string.

Chain of HDAC3 (O15379 whole entry): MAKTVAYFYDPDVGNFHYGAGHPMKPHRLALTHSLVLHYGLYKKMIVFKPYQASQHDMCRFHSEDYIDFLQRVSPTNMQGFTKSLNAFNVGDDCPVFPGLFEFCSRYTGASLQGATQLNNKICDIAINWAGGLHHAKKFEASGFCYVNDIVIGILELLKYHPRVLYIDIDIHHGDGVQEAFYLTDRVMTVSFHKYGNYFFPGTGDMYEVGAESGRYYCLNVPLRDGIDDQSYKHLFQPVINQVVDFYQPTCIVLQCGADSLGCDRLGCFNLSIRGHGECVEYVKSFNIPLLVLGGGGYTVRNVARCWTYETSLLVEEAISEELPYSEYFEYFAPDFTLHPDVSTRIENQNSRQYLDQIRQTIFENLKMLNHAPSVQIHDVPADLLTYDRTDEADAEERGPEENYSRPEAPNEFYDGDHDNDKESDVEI
Chain of HDAC3 (Q9Y618 395-489 partner limits assumed): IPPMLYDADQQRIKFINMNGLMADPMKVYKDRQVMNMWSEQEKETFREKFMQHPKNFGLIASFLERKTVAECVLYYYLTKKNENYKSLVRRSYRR
Chain of HDAC1 (Q13547 whole entry): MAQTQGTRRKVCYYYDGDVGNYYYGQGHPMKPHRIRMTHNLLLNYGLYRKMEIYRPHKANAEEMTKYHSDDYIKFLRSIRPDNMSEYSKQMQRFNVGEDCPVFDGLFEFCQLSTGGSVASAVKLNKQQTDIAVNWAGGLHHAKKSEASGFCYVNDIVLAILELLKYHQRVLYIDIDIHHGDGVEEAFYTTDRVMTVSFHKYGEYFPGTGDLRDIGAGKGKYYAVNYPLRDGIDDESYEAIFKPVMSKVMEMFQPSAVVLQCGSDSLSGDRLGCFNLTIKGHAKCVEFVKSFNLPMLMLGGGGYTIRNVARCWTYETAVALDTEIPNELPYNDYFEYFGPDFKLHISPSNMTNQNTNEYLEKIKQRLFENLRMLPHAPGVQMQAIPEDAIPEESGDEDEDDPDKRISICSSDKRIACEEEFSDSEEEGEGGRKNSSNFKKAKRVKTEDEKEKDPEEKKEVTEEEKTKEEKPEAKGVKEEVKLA

Consider `O=C(CCCCCCC(=O)Nc1ccccc1)NO` [SAHA, suberoylanilide hydroxamic acid], for which the inhibition at 10 µM on HDAC6 was determined as 100%; at HDAC10, 100%; on HDAC3, 99 ± 0.7%; on HDAC1 it was 100 ± 0.3%.

Regarding `CCOC(=O)NCCCC(=O)Nc1ccc(CO[Si](C)(C)C(C)(C)C)cc1` [Compound 27, Ethyl (4-((4-(((tert-butyldimethylsilyl)oxy)methyl)phenyl)amino)-4-oxobutyl)carbamate], in assay [1], the “augmentation of CD3-stimulated anti-LAMP fluorescence increases (lytic granule exocytosis)” value turned out to be 26%.

Turning to `CCOC(=O)NCCCC(=O)Nc1ccc(O[Si](C)(C)C(C)(C)C)cc1` [Compound 28, Ethyl (4-((4-((tert-butyldimethylsilyl)oxy)phenyl)amino)-4-oxobutyl)carbamate], in assay [1], the “augmentation of CD3-stimulated anti-LAMP fluorescence increases (lytic granule exocytosis)” value came to 71%.
